Columns and labels:
[1] = target: BCL-2 binding to biotinylated BAD peptide (Homo sapiens, UniProt P10415); experiment: SPR (Biacore) solution inhibition assay, BCL-2 binding to BAD peptide surface; details: read-out: BCL2_SPR IC50 BAD
From the text: (§1) The present method includes utility of a Surface plasmon resonance (SPR)-based biosensor (Biacore™, GE Healthcare, Uppsala, Sweden) to characterize BCL-2 inhibitors.
(§2) Biacore™ utilizes the phenomenon of surface plasmon resonance (SPR) to detect and measure binding interactions. In a typical Biacore experiment, one of the interacting molecules (ligand) is immobilized on a flexible dextran matrix while the interacting partner (analyte) is allowed to flow across that surface. A binding interaction results in an increase in mass on the sensor surface and a corresponding direct change in the refractive index of the medium in the vicinity of the sensor surface. Changes in refractive index or signal are recorded in resonance units (R.U.) Signal changes due to association and dissociation of complexes are monitored in a non-invasive manner, continuously and in real-time, the results of which are reported in the form of a sensorgram.
(§3) The SPR assay is configured to examine solution inhibition of BCL-2 binding to peptide derivatized sensor surfaces to generate IC50 values as a measure of inhibitor potency.
(§4) Biacore™ A100 (GE Healthcare, Uppsala, Sweden) was used to conduct all experiments reported herein. Sensor surface preparation and all interaction analyses experiments were performed at 25° C. Reagents were purchased from GE Healthcare. Running buffer containing 10 mM Hepes, pH7.4, 150 mM sodium chloride, 1.25 mM Dithiothreitol, 3% Dimethyl sulfoxide and 0.05% polysorbate 20 were utilized throughout all analyses.
(§5) Biotinylated BAK, BAD and NOXA peptides were diluted to 10 nM in running buffer and captured onto a sensor surface pre-derivatized with streptavidin (sensor chip SA) to peptide surface densities in the range 50-100 R.U. Peptide captured surfaces were blocked with 500 μM PEO2-Biotin.
(§6) Interaction analyses were performed by first equilibrating each sample within a 6 point three fold compound dilution series in the range 16 μM to […] with 56 nM BCL-2 for one hour during instrument start-up procedures. Protein compound mixtures were then injected over each peptide surface in parallel for 60 seconds at a flow-rate of 30 μL/min. 56 nM BCL-2 control samples were also prepared and run at regular intervals during the assay. Surface regeneration was performed at the end of each analysis cycle by two 30 second injections of 10 mM Glycine, pH 2.5, 1M Sodium Chloride, 0.05% polysorbate 20. Samples and control compound samples were run in duplicate and controls are also run at regular intervals during the assay to monitor surface and assay performance.
(§7) Data analyses are carried out using Biacore™ A100 evaluation software v1.1 to validate assay quality. Binding level report points were used relative to BCL-2 control samples to calculate % inhibition values for each compound protein mixture. […] The range of data shown in table 1 represents the high and low IC50 values obtained from multiple experiments.

[2] = target: BCL-2 binding to biotinylated BAK peptide (Homo sapiens, UniProt P10415); experiment: SPR (Biacore) solution inhibition assay, BCL-2 binding to BAK peptide surface; details: read-out: BCL2_SPR IC50 BAK
Chain of BCL-2 binding to biotinylated BAK peptide (P10415 whole entry): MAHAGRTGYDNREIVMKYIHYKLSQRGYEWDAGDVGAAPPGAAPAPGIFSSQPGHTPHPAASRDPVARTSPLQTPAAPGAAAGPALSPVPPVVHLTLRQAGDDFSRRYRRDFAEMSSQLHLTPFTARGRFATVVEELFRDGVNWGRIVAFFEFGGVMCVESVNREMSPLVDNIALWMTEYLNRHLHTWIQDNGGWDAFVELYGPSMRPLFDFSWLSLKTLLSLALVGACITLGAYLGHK
From the text: as §1, §2, §3, §4, §5, §6, §7

Chain of BCL-2 binding to biotinylated BAD peptide (P10415 whole entry): as above

Row | IC50 [1] [nM] | IC50 [2] [nM] | Structure (SMILES)
1 | 210 to 238 | 192 to 205 | CCCCN(CCCC)C(=O)c1cc(C)n(-c2ccc(NC(=O)Nc3c(C)cccc3C)cc2C(=O)N2Cc3ccccc3C[C@H]2CO)n1 [Example 30]
2 | 524 to 614 | 384 to 417 | CCCCN(CCCC)C(=O)c1cc(C)n(-c2ccc(NC(=O)Nc3ccc(OC)c(OC)c3)cc2C(=O)N2Cc3ccccc3C[C@H]2CO)n1 [Example 38]
3 | 72.3 to 78.3 | 73.2 to 77.1 | CCCCN(CCCC)C(=O)c1cc(C)n(-c2ccc(NC(=O)NCc3ccccc3OC)cc2C(=O)N2Cc3ccccc3C[C@H]2CO)n1 [Example 5]
4 | 618 to 713 | 631 to 667 | CCCCN(CCCC)C(=O)c1cc(C)n(-c2ccc(NC(=O)Nc3c(C)cccc3CC)cc2C(=O)N2Cc3ccccc3C[C@H]2CO)n1 [Example 34]
5 | 103 to 107 | 86.3 to 94.2 | CCCCN(CCCC)C(=O)c1cc(C)n(-c2ccc(NC(=O)NCc3ccccc3Cl)cc2C(=O)N2Cc3ccccc3C[C@H]2CO)n1 [Example 7]
6 | 766 to 845 | 667 to 676 | CCCCN(CCCC)C(=O)c1cc(C)n(-c2ccc(NC(=O)Nc3ccccc3Cc3ccccc3)cc2C(=O)N2Cc3ccccc3C[C@H]2CO)n1 [Example 39]
7 | 445 to 463 | 279 to 284 | CCCCN(CCCC)C(=O)c1cc(C)n(-c2ccc(NC(=O)NC3CCCC3)cc2C(=O)N2Cc3ccccc3C[C@H]2CO)n1 [Example 32]
8 | 1840 to 2170 | 1570 to 1730 | CCCCN(CCCC)C(=O)c1cc(C)n(-c2ccc(NC(=O)Nc3ccc(C#N)cc3)cc2C(=O)N2Cc3ccccc3C[C@H]2CO)n1 [Example 22]
9 | 582 to 618 | 404 to 430 | CCCCN(CCCC)C(=O)c1cc(C)n(-c2ccc(NC(=O)NCC)cc2C(=O)N2Cc3ccccc3C[C@H]2CO)n1 [Example 2]
10 | 3020 to 3220 | 2710 to 2770 | CCCCN(CCCC)C(=O)c1cc(C)n(-c2ccc(NC(=O)Nc3ccc(F)c(C(F)(F)F)c3)cc2C(=O)N2Cc3ccccc3C[C@H]2CO)n1 [Example 11]
11 | > 16000 | 8770 to 9190 | CCCCN(CCCC)C(=O)c1cc(C)n(-c2ccc(NC(=O)N[C@@H]3C[C@H]3c3ccccc3)cc2C(=O)N2Cc3ccccc3C[C@H]2CO)n1 [Example 13]
12 | 3200 to 3930 | 3010 to 3070 | CCCCN(CCCC)C(=O)c1cc(C)n(-c2ccc(NC(=O)Nc3ccc(F)c(F)c3)cc2C(=O)N2Cc3ccccc3C[C@H]2CO)n1 [Example 35]
13 | 4060 to 4280 | 3760 to 3780 | CCCCN(CCCC)C(=O)c1cc(C)n(-c2ccc(NC(=O)Nc3cc(F)cc(F)c3)cc2C(=O)N2Cc3ccccc3C[C@H]2CO)n1 [Example 37]
14 | 786 to 983 | 812 to 962 | CCCCN(CCCC)C(=O)c1cc(C)n(-c2ccc(NC(=O)Nc3ccc(SC)cc3)cc2C(=O)N2Cc3ccccc3C[C@H]2CO)n1 [Example 16]
15 | 156 to 165 | 140 to 149 | CCCCN(CCCC)C(=O)c1cc(C)n(-c2ccc(NC(=O)NCc3ccc(Cl)cc3)cc2C(=O)N2Cc3ccccc3C[C@H]2CO)n1 [Example 8]
16 | 2320 to 2500 | 1540 to 1580 | CCCCN(CCCC)C(=O)c1cc(C)n(-c2ccc(NC(=O)Nc3cccc(Cc4ccccc4)c3)cc2C(=O)N2Cc3ccccc3C[C@H]2CO)n1 [Example 31]
17 | 725 to 805 | 736 to 857 | CCCCN(CCCC)C(=O)c1cc(C)n(-c2ccc(NC(=O)N[C@H](C)c3ccc(OC)cc3)cc2C(=O)N2Cc3ccccc3C[C@H]2CO)n1 [Example 19]
18 | 2640 to 3450 | 2740 to 3150 | CCCCN(CCCC)C(=O)c1cc(C)n(-c2ccc(NC(=O)Nc3ccccc3OC)cc2C(=O)N2Cc3ccccc3C[C@H]2CO)n1 [Example 21]
19 | 2430 to 2560 | 1840 to 2440 | CCCCN(CCCC)C(=O)c1cc(C)n(-c2ccc(NC(=O)Nc3ccc4ccccc4c3)cc2C(=O)N2Cc3ccccc3C[C@H]2CO)n1 [Example 29]
20 | 89 to 108 | 85.1 to 85.9 | CCCCN(CCCC)C(=O)c1cc(C)n(-c2ccc(NC(=O)NCc3cccc(C)c3)cc2C(=O)N2Cc3ccccc3C[C@H]2CO)n1 [Example 17]

Row | IC50 [1] [nM] | IC50 [2] [nM] | Structure (SMILES)
21 | 204 to 303 | 197 to 224 | CCCCN(CCCC)C(=O)c1cc(C)n(-c2ccc(NC(=O)Nc3c(Cl)cccc3Cl)cc2C(=O)N2Cc3ccccc3C[C@H]2CO)n1 [Example 40]
22 | 923 to 969 | 888 to 970 | CCCCN(CCCC)C(=O)c1cc(C)n(-c2ccc(NC(=O)Nc3ccccc3OC(F)(F)F)cc2C(=O)N2Cc3ccccc3C[C@H]2CO)n1 [Example 41]
23 | 1730 to 1760 | 1950 to 2010 | CCCCN(CCCC)C(=O)c1cc(C)n(-c2ccc(NC(=O)Nc3ccc(-c4ccccc4)cc3)cc2C(=O)N2Cc3ccccc3C[C@H]2CO)n1 [Example 18]
24 | 894 to 1020 | 806 to 893 | CCCCN(CCCC)C(=O)c1cc(C)n(-c2ccc(NC(=O)Nc3cccc(OC)c3)cc2C(=O)N2Cc3ccccc3C[C@H]2CO)n1 [Example 3]
25 | 108 to 117 | 83.6 to 89.2 | CCCCN(CCCC)C(=O)c1cc(C)n(-c2ccc(NC(=O)NCc3ccc(OC)cc3)cc2C(=O)N2Cc3ccccc3C[C@H]2CO)n1 [Example 6]
26 | 2090 to 2440 | 1660 to 1700 | CCCCN(CCCC)C(=O)c1cc(C)n(-c2ccc(NC(=O)Nc3cccs3)cc2C(=O)N2Cc3ccccc3C[C@H]2CO)n1 [Example 26]
27 | 86.3 to 91.3 | 73.1 to 75.7 | CCCCN(CCCC)C(=O)c1cc(C)n(-c2ccc(NC(=O)N[C@@H](C)c3ccccc3)cc2C(=O)N2Cc3ccccc3C[C@H]2CO)n1 [Example 4]
28 | 52 to 65.5 | 45.2 to 54.3 | CCCCN(CCCC)C(=O)c1cc(C)n(-c2ccc(NC(=O)NCc3ccccc3)cc2C(=O)N2Cc3ccccc3C[C@H]2CO)n1 [Example 1, (S)-1-(4-(3-benzylureido)-2-(3-(hydroxymethyl)-1,2,3,4-tetrahydroisoquinoline-2-carbonyl)phenyl)-N,N-dibutyl-5-methyl-1H-pyrazole-3-carboxamide]
29 | 71.1 to 75.4 | 69 to 80.5 | CCCCN(CCCC)C(=O)c1cc(C)n(-c2ccc(NC(=O)N[C@@H](C)c3ccc(OC)cc3)cc2C(=O)N2Cc3ccccc3C[C@H]2CO)n1 [Example 20]
30 | 731 to 784 | 624 to 639 | CCCCN(CCCC)C(=O)c1cc(C)n(-c2ccc(NC(=O)Nc3ccc(C)c(C)c3)cc2C(=O)N2Cc3ccccc3C[C@H]2CO)n1 [Example 10]
31 | 150 to 157 | – | CCCCN(CCCC)C(=O)c1cc(C)n(-c2ccc(NC(=O)NCCc3ccccc3)cc2C(=O)N2Cc3ccccc3C[C@H]2CO)n1 [Example 15]
32 | 440 to 448 | 337 to 378 | CCCCN(CCCC)C(=O)c1cc(C)n(-c2ccc(NC(=O)Nc3cccc(Cl)c3C)cc2C(=O)N2Cc3ccccc3C[C@H]2CO)n1 [Example 33]
33 | 508 to 697 | 551 to 618 | CCCCN(CCCC)C(=O)c1cc(C)n(-c2ccc(NC(=O)Nc3ccccc3OCC)cc2C(=O)N2Cc3ccccc3C[C@H]2CO)n1 [Example 28]
34 | > 16000 | > 16000 | CCCCN(CCCC)C(=O)c1cc(C)n(-c2ccc(NC(=O)Nc3ccccc3Oc3ccccc3)cc2C(=O)N2Cc3ccccc3C[C@H]2CO)n1 [Example 12]
35 | 45.5 to 46.7 | 37 to 41.7 | CCCCN(CCCC)C(=O)c1cc(C)n(-c2ccc(NC(=O)N[C@@H](C)c3cccc(OC)c3)cc2C(=O)N2Cc3ccccc3C[C@H]2CO)n1 [Example 23]
36 | 334 to 357 | 250 to 273 | CCCCN(CCCC)C(=O)c1cc(C)n(-c2ccc(NC(=O)N[C@H](C)c3ccccc3)cc2C(=O)N2Cc3ccccc3C[C@H]2CO)n1 [Example 9]
37 | 232 to 255 | 143 to 177 | CCCCN(CCCC)C(=O)c1cc(C)n(-c2ccc(NC(=O)Nc3ccc(OC)cc3C)cc2C(=O)N2Cc3ccccc3C[C@H]2CO)n1 [Example 25]
38 | > 16000 | > 16000 | CCCCN(CCCC)C(=O)c1cc(C)n(-c2ccc(NC(=O)Nc3cc(Cl)cc(Cl)c3)cc2C(=O)N2Cc3ccccc3C[C@H]2CO)n1 [Example 36]
39 | 900 to 962 | 846 to 861 | CCCCN(CCCC)C(=O)c1cc(C)n(-c2ccc(NC(=O)Nc3ccc(Cl)cc3C)cc2C(=O)N2Cc3ccccc3C[C@H]2CO)n1 [Example 27]
40 | 494 to 509 | 343 to 356 | CCCCN(CCCC)C(=O)c1cc(C)n(-c2ccc(NC(=O)NC(C)C)cc2C(=O)N2Cc3ccccc3C[C@H]2CO)n1 [Example 14]

From patent publication US20140357666A1, “COMPOUNDS FOR INHIBITING THE INTERACTION OF BCL2 WITH BINDING PARTNERS” (NOVARTIS AG, priority 2011, published 2014)
